One compound from ChEMBL document CHEMBL1150191, “Isolation of Eupalmerin, a Minor Cembranoid Diterpene from the Caribbean Gorgonian Eunicea mammosa” (J Nat Prod, 1991) can be followed below.

The nature of this data set: Cytotoxicity against CHOK1 cells. The data set is classed as cell-based, Cricetulus griseus. As to conditions: chinese hamster, CHO-K1 cells; read-out: ED50 (the source's name).

Values after ≈ are worked out from the molar mass of the structure shown.

Regarding `C=C1C(=O)O[C@H]2[C@H](O)[C@@H](C)CCC/C(C)=C/CC[C@@]3(C)O[C@H]3C[C@@H]12` [EUPALMERIN], the CC50 worked out at 5.46 µg/mL (≈ 16.3 µM).
